In patent US10765114B2, “4-amino-6-(pyridyl and 2-substitutedphenyl)-picolinates and 6-amino-2-(pyridyl and 2-substitutedphenyl)-pyrimidine-4-carboxylates and their use as herbicides” (Dow AgroSciences LLC, priority 2013, dated 2020):
Where two headings read alike, the source gives them in different places.

Tests used:
[1] = tested on: Key Grass and Sedge Weeds as well as Grass Crops; assay: Post-Emergent Test II (Table 6); assay type: in vivo; conditions: post-emergence, 336 h, 14 days after application; for pest or weed control at 70 g/ha: 70 g ai/ha; for pest or weed control at 140 g/ha: 140 g ai/ha
Outline: (§1)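 Visual injury ratings (0 = no injury, 100 = complete kill) were taken 14 days after treatment relative to untreated plants. Seedlings at the first or second true leaf stage received an overhead spray at 187 L/ha, and solvent-blank sprayed plants served as controls.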

[2] = tested on: Key Broadleaf Weed and Crop Species; assay: Post-Emergent Test II (Table 5); assay type: in vivo; conditions: post-emergence, 336 h; for pest or weed control at 70 g/ha: application rate 70 (kg ai/ha; footnote: g ai/ha); for pest or weed control at 140 g/ha: application rate 140 (kg ai/ha; footnote: g ai/ha)
Outline: as §1

[3] = CYPSS, read-out: Visual Growth Reduction (%) 14 Days After Application CYPSS
[4] = DIGSA: crabgrass (Digitaria sanguinalis), read-out: Visual Growth Reduction (%) 14 Days After Application DIGSA
[5] = ECHSS, read-out: Visual Growth Reduction (%) 14 Days After Application ECHSS
[6] = ORYSS (crop), read-out: Visual Growth Reduction (%) 14 Days After Application ORYSS
[7] = SETFA: giant foxtail (Setaria faberi), read-out: Visual Growth Reduction (%) 14 Days After Application SETFA
[8] = SORVU: grain sorghum (Sorghum vulgare), read-out: Visual Growth Reduction (%) 14 Days After Application SORVU
[9] = TRZSS (crop), read-out: Visual Growth Reduction (%) 14 Days After Application TRZSS
[10] = ZEAMX: maize, corn (Zea mays), read-out: Visual Growth Reduction (%) 14 Days After Application ZEAMX
[11] = Abutilon theophrasti, ABUTH: velvetleaf (Abutilon theophrasti), read-out: Visual Growth Reduction (%) 14 Days After Application ABUTH
[12] = Amaranthus retroflexus, AMARE: redroot pigweed (Amaranthus retroflexus), read-out: Visual Growth Reduction (%) 14 Days After Application AMARE
[13] = Brassica napus, BRSSS: oilseed rape, canola (Brassica napus), read-out: Visual Growth Reduction (%) 14 Days After Application BRSSS
[14] = Chenopodium album, CHEAL: lambsquarters (Chenopodium album), read-out: Visual Growth Reduction (%) 14 Days After Application CHEAL
[15] = Euphorbia heterophylla, EPHHL: wild poinsettia (Euphorbia heterophylla), read-out: Visual Growth Reduction (%) 14 Days After Application EPHHL
[16] = Helianthus annuus, HELAN: sunflower (Helianthus annuus), read-out: Visual Growth Reduction (%) 14 Days After Application HELAN
[17] = Viola tricolor, VIOTR: wild pansy (Viola tricolor), read-out: Visual Growth Reduction (%) 14 Days After Application VIOTR

Compound | melting point [°C] | pest or weed control at 70 g/ha [1, 3] [%] | pest or weed control at 140 g/ha [1, 3] [%] | pest or weed control at 70 g/ha [1, 4] [%] | pest or weed control at 140 g/ha [1, 4] [%] | pest or weed control at 70 g/ha [1, 5] [%] | pest or weed control at 140 g/ha [1, 5] [%] | pest or weed control at 70 g/ha [1, 6] [%] | pest or weed control at 140 g/ha [1, 6] [%] | pest or weed control at 70 g/ha [1, 7] [%] | pest or weed control at 140 g/ha [1, 7] [%] | pest or weed control at 70 g/ha [1, 8] [%] | pest or weed control at 140 g/ha [1, 8] [%] | pest or weed control at 70 g/ha [1, 9] [%] | pest or weed control at 140 g/ha [1, 9] [%] | pest or weed control at 70 g/ha [1, 10] [%] | pest or weed control at 140 g/ha [1, 10] [%] | pest or weed control at 70 g/ha [2, 11] [%] | pest or weed control at 140 g/ha [2, 11] [%] | pest or weed control at 70 g/ha [2, 12] [%] | also measured
COC(=O)c1nc(-c2ccc(F)c(F)c2C)cc(N)c1Cl [Compound 69] | 120 to 126 | 45 to 59 | 95 to 100 | 0 to 29 | 0 to 29 | 0 to 29 | 0 to 29 | 0 to 29 | 0 to 29 | 0 to 29 | 0 to 29 | 0 to 29 | 0 to 29 | 0 to 29 | 0 to 29 | 0 to 29 | 0 to 29 | 95 to 100 | 95 to 100 | 95 to 100 | pest or weed control at 140 g/ha [2, 12]: 95 to 100%; pest or weed control at 70 g/ha [2, 13]: 85 to 94%; pest or weed control at 140 g/ha [2, 13]: 95 to 100%; pest or weed control at 70 g/ha [2, 14]: 95 to 100%; pest or weed control at 140 g/ha [2, 14]: 95 to 100%; pest or weed control at 70 g/ha [2, 15]: 0 to 29%; pest or weed control at 140 g/ha [2, 15]: 0 to 29%; pest or weed control at 70 g/ha [2, 16]: 85 to 94%; pest or weed control at 140 g/ha [2, 16]: 85 to 94%; pest or weed control at 70 g/ha [2, 17]: 0 to 29%; pest or weed control at 140 g/ha [2, 17]: 0 to 29%
COC(=O)c1nc(-c2ccc(C(F)(F)F)nc2)c(F)c(N)c1Cl [Compound 59, methyl 4-amino-5-chloro-3-fluoro-6′-(trifluoromethyl)-[2,3′-bipyridine]-6-carboxylate] | 137 | 95 to 100 | 95 to 100 | 75 to 84 | 85 to 94 | 85 to 94 | 85 to 94 | 0 to 29 | 0 to 29 | 60 to 74 | 75 to 84 | 75 to 84 | 85 to 94 | 45 to 59 | 45 to 59 | 75 to 84 | 75 to 84 | 85 to 94 | 95 to 100 | 85 to 94 | pest or weed control at 140 g/ha [2, 12]: 95 to 100%; pest or weed control at 70 g/ha [2, 13]: 60 to 74%; pest or weed control at 140 g/ha [2, 13]: 60 to 74%; pest or weed control at 70 g/ha [2, 14]: 95 to 100%; pest or weed control at 140 g/ha [2, 14]: 95 to 100%; pest or weed control at 70 g/ha [2, 15]: 95 to 100%; pest or weed control at 140 g/ha [2, 15]: 95 to 100%; pest or weed control at 70 g/ha [2, 16]: 95 to 100%; pest or weed control at 140 g/ha [2, 16]: 95 to 100%; pest or weed control at 70 g/ha [2, 17]: 60 to 74%; pest or weed control at 140 g/ha [2, 17]: 75 to 84%
COc1c(N)nc(-c2ccc(C(F)(F)F)nc2)nc1C(=O)O [Compound 5, 6-amino-5-methoxy-2-(6-(trifluoromethyl)pyridin-3-yl)pyrimidine-4-carboxylic acid] | 188 | 0 to 29 | 0 to 29 | 60 to 74 | 75 to 84 | 85 to 94 | 85 to 94 | 0 to 29 | 0 to 29 | 0 to 29 | 30 to 44 | 0 to 29 | 0 to 29 | 0 to 29 | 30 to 44 | 0 to 29 | 0 to 29 | 0 to 29 | 0 to 29 | 75 to 84 | pest or weed control at 140 g/ha [2, 12]: 85 to 94%; pest or weed control at 70 g/ha [2, 13]: 85 to 94%; pest or weed control at 140 g/ha [2, 13]: 85 to 94%; pest or weed control at 70 g/ha [2, 14]: 0 to 29%; pest or weed control at 140 g/ha [2, 14]: 45 to 59%; pest or weed control at 70 g/ha [2, 15]: 85 to 94%; pest or weed control at 140 g/ha [2, 15]: 95 to 100%; pest or weed control at 70 g/ha [2, 16]: 60 to 74%; pest or weed control at 140 g/ha [2, 16]: 75 to 84%; pest or weed control at 70 g/ha [2, 17]: 0 to 29%; pest or weed control at 140 g/ha [2, 17]: 30 to 44%
COC(=O)c1nc(-c2ccc(C(F)(F)F)nc2)nc(N)c1OC [Compound 43, methyl 6-amino-5-methoxy-2-(6-(trifluoromethyl)pyridin-3-yl)pyrimidine-4-carboxylate] | 148 to 149 | 0 to 29 | 60 to 74 | 30 to 44 | 60 to 74 | 0 to 29 | 0 to 29 | 0 to 29 | 0 to 29 | 0 to 29 | 0 to 29 | 0 to 29 | 0 to 29 | 0 to 29 | 0 to 29 | 0 to 29 | 0 to 29 | 0 to 29 | 0 to 29 | 30 to 44 | pest or weed control at 140 g/ha [2, 12]: 60 to 74%; pest or weed control at 70 g/ha [2, 13]: 30 to 44%; pest or weed control at 140 g/ha [2, 13]: 45 to 59%; pest or weed control at 70 g/ha [2, 14]: 0 to 29%; pest or weed control at 140 g/ha [2, 14]: 0 to 29%; pest or weed control at 70 g/ha [2, 15]: 30 to 44%; pest or weed control at 140 g/ha [2, 15]: 60 to 74%; pest or weed control at 70 g/ha [2, 16]: 0 to 29%; pest or weed control at 140 g/ha [2, 16]: 30 to 44%; pest or weed control at 70 g/ha [2, 17]: 0 to 29%; pest or weed control at 140 g/ha [2, 17]: 0 to 29%
